Assays:
[1] = tested on: rat hypothalamic neurons; experiment: Signalling in rat hypothalamic neurons; assay type: cell-based
[2] = tested on: rats; experiment: In vivo toxicity/adverse events; set-up: species or system rat
Procedure: (§1) However, the rats were not ataxic or comatose, they were simply in a relaxed quiescent state. […] Effects on body temperature and other behaviours are not blocked by pre-treatment with the vasopressin V1A receptor antagonist SR49059 (10 mg/kg). […] The data in these two studies was gathered with DataSciences International biotelemetry system.

[3] = Pharmacokinetics after IP and PO administration; assay type: in vivo, Hooded Wistar rats; details: for AUC(0-inf) / AUC(0-t) / Cmax / Tmax: Hooded Wistar, rat, plasma
Procedure: When given via an intraperitoneal injection (IP), SOC-1 plasma levels show a rapid elevation. This swiftly declines over the first hour before settling into a less hasty decrease in concentration over the proceeding hours. […] The initial increase in plasma levels is less pronounced when SOC-1 is given orally but the decline is far less rapid, with plasma concentration becoming equivalent to IP between 1 and 4 hours. In many ways this is a more favourable profile as, unlike the IP dosing, oral dosing results in levels of SOC-1 that are still high but that are also very stable over many hours, with a half-life of over four hours.

[4] = tested on: rhesus monkeys; experiment: Intravenous cocaine self-administration; assay type: in vivo, rhesus monkey; details: 3 mg/kg orally
[5] = tested on: rats; experiment: Conditioned place preference; details: rat, in vivo
[6] = molecular target: V1B (Homo sapiens, UniProt P47901); experiment: Orthosteric binding, AVP receptors
[7] = tested on: male Hooded Wistar rats; experiment: Social interaction test; assay type: in vivo, rat
Procedure: The primary phenotypic effect was a massive increase in a behaviour called “adjacent lying” where unfamiliar rats come together in passive social contact for prolonged periods. […] (n=6-8 pairs per condition, 20 minute test). Remarkably the effects of SOC-1 outlive its acute administration and a prolonged upregulation of social behaviour (measured as time spent in close proximity) in rats given only 3 doses of SOC-1, 2 weeks previously, was observed (FIG. 1, image (B)).

[8] = tested on: BALB/C mice; experiment: Social preference test, BALB/C mouse model of autism spectrum disorders; assay type: in vivo; details: 5 mg/kg IP
Description: BALB/C mice have autistic-like behaviours (including reduced interest in social stimuli) compared to standard C57BL/6 mice. In a social preference test, BALB/C mice show no preference for interacting with a social stimulus (a novel mouse) over an object stimulus (a novel object), whereas C57BL/6 mice show a robust preference.

[9] = tested on: Wistar rats; experiment: Biotelemetry of body temperature and heart rate; assay type: in vivo, rat
Procedure: FIG. 7—The monitored body temperatures of Wistar rats administered vehicle, SOC-1 (5 mg/kg), or SOC-1 and the V1A receptor antagonist SR49059 (10 mg/kg).
FIG. 8—The monitored heart rates for Wistar rats administered vehicle, SOC-1 (5 mg/kg), or SOC-1 and the V1A receptor antagonist SR49059 (10 mg/kg).
as §1

V1B, sequence (P47901 whole entry): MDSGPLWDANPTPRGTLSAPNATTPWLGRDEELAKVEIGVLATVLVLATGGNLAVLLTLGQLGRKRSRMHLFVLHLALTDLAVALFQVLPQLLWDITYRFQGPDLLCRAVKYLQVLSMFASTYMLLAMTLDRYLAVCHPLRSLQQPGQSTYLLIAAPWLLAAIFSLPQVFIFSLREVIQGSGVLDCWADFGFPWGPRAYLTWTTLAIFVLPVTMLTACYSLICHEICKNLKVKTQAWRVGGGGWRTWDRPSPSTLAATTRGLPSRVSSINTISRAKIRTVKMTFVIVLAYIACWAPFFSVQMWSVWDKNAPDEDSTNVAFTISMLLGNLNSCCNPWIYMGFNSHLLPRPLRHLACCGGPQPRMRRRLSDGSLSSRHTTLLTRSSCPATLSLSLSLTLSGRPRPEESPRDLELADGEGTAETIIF

For Cl.Cn1ncc2c1Nc1ccccc1NC2 [SOC-1], the “Ca^2+ levels” value [1] was “did not reliably alter Ca^2+ levels”, the IP1 levels [1] was “did not alter IP1 levels” and the “basal cAMP” value [1] was “able to decrease basal cAMP”. The “forskolin-stimulated cAMP” value [1] was “did not reliably decrease forskolin-stimulated cAMP”, the locomotor activity ([2]; 10-20 mg/kg IP) was “some mild inhibition of locomotor activity” and the “tolerability of repeated dosing (body weight, coat condition)” value ([2]; repeated dosing) was “without any apparent adverse effects”. The AUC(0-inf) ([3]; ip, 5 mg/kg) was 5910 ng·h/mL, the AUC(0-t) ([3]; ip, 5 mg/kg) was 5520 ng·h/mL and the Cmax ([3]; ip, 5 mg/kg) was 3840 ng/mL. For the same compound, the Tmax ([3]; ip, 5 mg/kg) was 3.96 min, the AUC(0-inf) ([3]; po, 5 mg/kg) was 8490 ng·h/mL and the AUC(0-t) ([3]; po, 5 mg/kg) was 4060 ng·h/mL. It also gave a Cmax ([3]; po, 5 mg/kg) of 1320 ng/mL, a Tmax ([3]; po, 5 mg/kg) of 26.1 min and a ka ([3]; IP, 5 mg/kg) of 71.727 h⁻¹. For the same compound, the ke ([3]; IP, 5 mg/kg) was 0.679 h⁻¹, the t1/2ka ([3]; IP, 5 mg/kg) was 0.5798 min and the t1/2ke ([3]; IP, 5 mg/kg) was 61.26 min. For the same compound, the ka ([3]; PO, 5 mg/kg) was 9.45 h⁻¹, the t1/2ka ([3]; PO, 5 mg/kg) was 4.38 min and the t1/2ke ([3]; PO, 5 mg/kg) was 248.8 min. The half-life ([3]; oral dosing) was “over four”, the oral bioavailability ([3]; relative to the intraperitoneal route) was “excellent oral bioavailability” and the food consumption [4] was “without affecting food consumption”. The “intravenous cocaine self-administration relative to baseline levels” value [4] was “nearly halved”, the conditioned place preference [5] was “does not produce a conditioned place preference” and the “affinity for the orthosteric binding site of V1B” value [6] was “Nor does SOC-1 show any affinity”. For the same compound, the “adjacent lying in the social interaction test” value ([7]; 5 and 10 mg/kg IP, 20 minute test) was “massive increase in adjacent lying”, the “pro-social effects compared with AVP, MDMA and WAY 267,464” value ([7]; most efficacious doses, adjacent lying) was “most powerful pro-social effects by a considerable margin” and the “proximity towards a novel conspecific (time spent within 1 body length)” value ([7]; two weeks following treatment, 3 doses in total across 6 days) was “increased proximity towards a novel conspecific relative to controls”. The “time spent investigating the object stimulus (a novel object)” value [8] was “significantly increased the amount of time the BALB/C mice spent investigating the object stimulus”, the “time spent investigating the social stimulus (a novel mouse)” value [8] was “significantly increased the amount of time BALB/C mice spent investigating the social stimulus” and the body temperature ([9]; 5 mg/kg) was “modest hypothermia”. For the same compound, the heart rate ([9]; 5 mg/kg) was “no effect” and the “hypothermia at higher ambient temperatures” value ([9]; 30° C.) was “abolished”.

— patent US11890287B2, “Therapeutic compounds and compositions for treating social disorders and substance use disorders” (Kinoxis Therapeutics Pty Ltd, priority 2015, dated 2024)
